Data: US7034208B1, “Ahas inhibiting herbicide resistant wheat and method for selection thereof” (BASF Aktiengellschaft, priority 1991, dated 2006)

Assays:
Type in all cases: in vivo
[1] = test system: reciprocally crossed and selfed progeny of mutant wheat selections; assay: Genetic Condition Studies Experiment 2, reciprocal crosses and selfed progeny; details: 200 g/ha postemergence
Excerpt: Experiment 2: This experiment continues the evaluation of the mutant wheat selections by examining herbicide resistance in reciprocal crossed and selfed material. Reciprocal crosses are made between M3 plants representing each of the original four mutant selections and between these selections and Fidel. Progeny of these crosses as well as selfed progeny of the plants used in the crosses are planted in 6 inch azalea pots in Metro Mix 350™. Ten pots of each cross are planted with two seeds planted per pot. Ten days later, all of the selfed and reciprocally crossed progeny are sprayed postemergence with PURSUIT™ at 200 g/ha. Herbicide treatment is applied as described in Experiment 1. Plants are thinned to one plant per pot (by removing the weaker of the two plants per pot) one week after herbicide treatment. There is 100% germination of seed from the mutant reciprocal crosses and greater than 90% germination of seed from the selfed mutants.

[2] = test system: M4 progeny of wheat selections FS1-FS4 and Fidel; assay: Segregation Study, postemergence spray of M4 progeny
Procedure: A study is performed to assay M4 progeny of the initial mutant wheat selections for imidazolinone resistance and homogeneity. M4 seeds, from M3 plants (derived from initial selections, FS1-FS4) which survive the two-step screen described previously, are used in this study. In addition, M4 seeds derived from M3 plants of each selection which are not screened (designated “stock” plants) are evaluated as well as Fidel controls. Seeds, derived from both stock and screened M3 plants representing each infloresence of each original wheat selection (FS1-FS4), are planted in flats at a rate of twenty-five seeds per row and eight rows per flat. One week after planting, when the seedlings are at Z12 (two leaf) stage, the plants are sprayed with 62.5 g/ha PURSUIT™. The herbicide is applied with a laboratory belt sprayer at a rate of 950 L/ha with a belt speed of 12.5 sec/rev. using sprayer nozzle #40015E at a height 18 inches above the plants. Tween 20™ is used as a surfactant at 0.25% v/v. Plants are evaluated three weeks after spraying.

[3] = test system: F2 of intercrosses between wheat selections FS1-FS4; assay: Genetic Condition Studies Experiment 5, allelism (Table 3); details: 200 g/ha, after treatment
Excerpt: Experiment 5: Crosses and reciprocal crosses are made between the four mutant wheat selections. The F1 seed from these crosses is planted and the plants allowed to self. The F2 seed is harvested and used in this experiment to determine allelism of the four selections. Whole-flats are filled with Metro Mix 350™ and are sown with 100 seeds per cross (four rows with 25 seeds/row). In addition a row of susceptible Fidel is sown in each flat. Three sources from each cross are used. When the seedlings reach the Z12 stage, the flats are sprayed with PURSUIT™ at 200 g/ha. The PURSUIT™ solution is applied as previously described. […]

Compound: CCc1cnc(C2=NC(C)(C(C)C)C(=O)N2)c(C(=O)O)c1 (stereo not drawn) [PURSUIT, 5-ethyl-2-(4-isopropyl-4-methyl-5-oxo-2-imidazolin-2-yl)-nicotinic acid]
- damage to mutant crosses [1]: None of the mutant crosses is damaged
- susceptibility of Fidel ([2]; Fidel, 62.5 g/ha postemergence at Z12 stage, three weeks after spraying, all plants die): completely susceptible
- tolerance of resistant selections ([2]; imidazolinone-resistant winter wheat selections, M4, 62.5 g/ha postemergent, greenhouse): excellent tolerance
- Resist: number of plants resistant ([3]; F2 source (FS1/FS2)X-1): 71
- Suscept: number of plants susceptible ([3]; F2 source (FS1/FS2)X-1): 1
- Resist: number of plants resistant ([3]; F2 source (FS1/FS2)X-2): 85
- Suscept: number of plants susceptible ([3]; F2 source (FS1/FS2)X-2): 2
- Resist: number of plants resistant ([3]; F2 source (FS1/FS2)X-3): 74
- Suscept: number of plants susceptible ([3]; F2 source (FS1/FS2)X-3): 1
- Resist: number of plants resistant ([3]; F2 source (FS1/FS3)X-1): 82
- Suscept: number of plants susceptible ([3]; F2 source (FS1/FS3)X-1): 0
- Resist: number of plants resistant ([3]; F2 source (FS1/FS3)X-2): 92
- Suscept: number of plants susceptible ([3]; F2 source (FS1/FS3)X-2): 0
- Resist: number of plants resistant ([3]; F2 source (FS1/FS3)X-3): 93
- Suscept: number of plants susceptible ([3]; F2 source (FS1/FS3)X-3): 0
- Resist: number of plants resistant ([3]; F2 source (FS1/FS4)X-1): 96
- Suscept: number of plants susceptible ([3]; F2 source (FS1/FS4)X-1): 0
- Resist: number of plants resistant ([3]; F2 source (FS1/FS4)X-2): 90
- Suscept: number of plants susceptible ([3]; F2 source (FS1/FS4)X-2): 0
- Resist: number of plants resistant ([3]; F2 source (FS1/FS4)X-3): 93
- Suscept: number of plants susceptible ([3]; F2 source (FS1/FS4)X-3): 2
- Resist: number of plants resistant ([3]; F2 source (FS2/FS1)X-1): 95
- Suscept: number of plants susceptible ([3]; F2 source (FS2/FS1)X-1): 0
- Resist: number of plants resistant ([3]; F2 source (FS2/FS1)X-2): 91
- Suscept: number of plants susceptible ([3]; F2 source (FS2/FS1)X-2): 0
- Resist: number of plants resistant ([3]; F2 source (FS2/FS1)X-3): 97
- Suscept: number of plants susceptible ([3]; F2 source (FS2/FS1)X-3): 0
- Resist: number of plants resistant ([3]; F2 source (FS2/FS3)X-1): 99
- Suscept: number of plants susceptible ([3]; F2 source (FS2/FS3)X-1): 0
- Resist: number of plants resistant ([3]; F2 source (FS2/FS3)X-2): 87
- Suscept: number of plants susceptible ([3]; F2 source (FS2/FS3)X-2): 1
- Resist: number of plants resistant ([3]; F2 source (FS2/FS3)X-3): 92
- Suscept: number of plants susceptible ([3]; F2 source (FS2/FS3)X-3): 0
- Resist: number of plants resistant ([3]; F2 source (FS2/FS4)X-1): 102
- Suscept: number of plants susceptible ([3]; F2 source (FS2/FS4)X-1): 0
- Resist: number of plants resistant ([3]; F2 source (FS2/FS4)X-2): 97
- Suscept: number of plants susceptible ([3]; F2 source (FS2/FS4)X-2): 0
- Resist: number of plants resistant ([3]; F2 source (FS2/FS4)X-3): 97
- Suscept: number of plants susceptible ([3]; F2 source (FS2/FS4)X-3): 1
- Resist: number of plants resistant ([3]; F2 source (FS3/FS1)X-2): 95
- Suscept: number of plants susceptible ([3]; F2 source (FS3/FS1)X-2): 0
- Resist: number of plants resistant ([3]; F2 source (FS3/FS1)X-3): 97
- Suscept: number of plants susceptible ([3]; F2 source (FS3/FS1)X-3): 0
- Resist: number of plants resistant ([3]; F2 source (FS3/FS1)X-5): 94
- Suscept: number of plants susceptible ([3]; F2 source (FS3/FS1)X-5): 1
- Resist: number of plants resistant ([3]; F2 source (FS3/FS2)X-1): 96
- Suscept: number of plants susceptible ([3]; F2 source (FS3/FS2)X-1): 0
- Resist: number of plants resistant ([3]; F2 source (FS3/FS2)X-2): 94
- Suscept: number of plants susceptible ([3]; F2 source (FS3/FS2)X-2): 0
- Resist: number of plants resistant ([3]; F2 source (FS3/FS2)X-3): 96
- Suscept: number of plants susceptible ([3]; F2 source (FS3/FS2)X-3): 0
- Resist: number of plants resistant ([3]; F2 source (FS3/FS4)X-1): 98
- Suscept: number of plants susceptible ([3]; F2 source (FS3/FS4)X-1): 0
- Resist: number of plants resistant ([3]; F2 source (FS3/FS4)X-2): 96
- Suscept: number of plants susceptible ([3]; F2 source (FS3/FS4)X-2): 0
- Resist: number of plants resistant ([3]; F2 source (FS3/FS4)X-3): 96
- Suscept: number of plants susceptible ([3]; F2 source (FS3/FS4)X-3): 0
- Resist: number of plants resistant ([3]; F2 source (FS4/FS1)X-1): 93
- Suscept: number of plants susceptible ([3]; F2 source (FS4/FS1)X-1): 1
- Resist: number of plants resistant ([3]; F2 source (FS4/FS1)X-2): 91
- Suscept: number of plants susceptible ([3]; F2 source (FS4/FS1)X-2): 0
- Resist: number of plants resistant ([3]; F2 source (FS4/FS1)X-3): 94
- Suscept: number of plants susceptible ([3]; F2 source (FS4/FS1)X-3): 1
- Resist: number of plants resistant ([3]; F2 source (FS4/FS2)X-1): 94
- Suscept: number of plants susceptible ([3]; F2 source (FS4/FS2)X-1): 0
- Resist: number of plants resistant ([3]; F2 source (FS4/FS2)X-2): 95
- Suscept: number of plants susceptible ([3]; F2 source (FS4/FS2)X-2): 1
- Resist: number of plants resistant ([3]; F2 source (FS4/FS2)X-3): 95
- Suscept: number of plants susceptible ([3]; F2 source (FS4/FS2)X-3): 0
- Resist: number of plants resistant ([3]; F2 source (FS4/FS3)X-1): 96
- Suscept: number of plants susceptible ([3]; F2 source (FS4/FS3)X-1): 0
- Resist: number of plants resistant ([3]; F2 source (FS4/FS3)X-2): 100
- Suscept: number of plants susceptible ([3]; F2 source (FS4/FS3)X-2): 0
- Resist: number of plants resistant ([3]; F2 source (FS4/FS3)X-3): 94
- Suscept: number of plants susceptible ([3]; F2 source (FS4/FS3)X-3): 0
- Resist: number of plants resistant ([3]; Total of (FS1/FS2) sources): 230
- Suscept: number of plants susceptible ([3]; Total of (FS1/FS2) sources): 4
- Resist: number of plants resistant ([3]; Total of (FS1/FS3) sources): 267
- Suscept: number of plants susceptible ([3]; Total of (FS1/FS3) sources): 0
- Resist: number of plants resistant ([3]; Total of (FS1/FS4) sources): 279
- Suscept: number of plants susceptible ([3]; Total of (FS1/FS4) sources): 2
- Resist: number of plants resistant ([3]; Total of (FS2/FS1) sources): 283
- Suscept: number of plants susceptible ([3]; Total of (FS2/FS1) sources): 0
- Resist: number of plants resistant ([3]; Total of (FS2/FS3) sources): 278
- Suscept: number of plants susceptible ([3]; Total of (FS2/FS3) sources): 1
- Resist: number of plants resistant ([3]; Total of (FS2/FS4) sources): 296
- Suscept: number of plants susceptible ([3]; Total of (FS2/FS4) sources): 1
- Resist: number of plants resistant ([3]; Total of (FS3/FS1) sources): 286
- Suscept: number of plants susceptible ([3]; Total of (FS3/FS1) sources): 1
- Resist: number of plants resistant ([3]; Total of (FS3/FS2) sources): 286
- Suscept: number of plants susceptible ([3]; Total of (FS3/FS2) sources): 0
- Resist: number of plants resistant ([3]; Total of (FS3/FS4) sources): 290
- Suscept: number of plants susceptible ([3]; Total of (FS3/FS4) sources): 0
- Resist: number of plants resistant ([3]; Total of (FS4/FS1) sources): 278
- Suscept: number of plants susceptible ([3]; Total of (FS4/FS1) sources): 2
- Resist: number of plants resistant ([3]; Total of (FS4/FS2) sources): 284
- Suscept: number of plants susceptible ([3]; Total of (FS4/FS2) sources): 1
- Resist: number of plants resistant ([3]; Total of (FS4/FS3) sources): 290
- Suscept: number of plants susceptible ([3]; Total of (FS4/FS3) sources): 0
